# According to PMC7327383, “The affinity and selectivity of α‐adrenoceptor antagonists, antidepressants, and antipsychotics for the human α1A, α1B, and α1D‐adrenoceptors” (Pharmacology Research & Perspectives, 2020):
# Read-outs that look alike come from different tables or passages of the source.
# Key:
# human α1A-adrenoceptor = molecular target: T1, human α1A-adrenoceptor (Homo sapiens, UniProt P35348); test: [3H]prazosin whole-cell competition binding, CHO-α1A cells
# T1 construct: CHO cells stably expressing either the full‐length human α1A, α1B, or α1D‐adrenoceptor
# T1 sequence (P35348 1-466): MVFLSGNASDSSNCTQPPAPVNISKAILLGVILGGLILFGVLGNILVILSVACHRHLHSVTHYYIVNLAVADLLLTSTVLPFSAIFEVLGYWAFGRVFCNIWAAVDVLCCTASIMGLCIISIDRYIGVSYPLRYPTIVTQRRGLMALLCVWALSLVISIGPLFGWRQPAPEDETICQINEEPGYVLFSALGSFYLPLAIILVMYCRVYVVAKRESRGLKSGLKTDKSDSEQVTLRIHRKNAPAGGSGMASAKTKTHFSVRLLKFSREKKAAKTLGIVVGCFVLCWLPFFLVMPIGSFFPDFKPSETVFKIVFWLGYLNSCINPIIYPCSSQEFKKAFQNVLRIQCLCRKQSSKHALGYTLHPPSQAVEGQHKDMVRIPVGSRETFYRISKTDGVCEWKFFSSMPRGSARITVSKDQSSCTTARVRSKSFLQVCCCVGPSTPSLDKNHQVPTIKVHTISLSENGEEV
# human α1B-adrenoceptor = molecular target: T2, human α1B-adrenoceptor (Homo sapiens, UniProt P35368); test: [3H]prazosin whole-cell competition binding, CHO-α1B cells; details: for Log KD α1B: result in words: no inhibition of [3H]prazosin binding at maximum concentration possible; for binding at α1B: result in words in the Log KD α1B column; for binding at α1B (result in words): up to the maximum concentration
# T2 construct: CHO cells stably expressing either the full‐length human α1A, α1B, or α1D‐adrenoceptor
# T2 sequence (P35368 1-520): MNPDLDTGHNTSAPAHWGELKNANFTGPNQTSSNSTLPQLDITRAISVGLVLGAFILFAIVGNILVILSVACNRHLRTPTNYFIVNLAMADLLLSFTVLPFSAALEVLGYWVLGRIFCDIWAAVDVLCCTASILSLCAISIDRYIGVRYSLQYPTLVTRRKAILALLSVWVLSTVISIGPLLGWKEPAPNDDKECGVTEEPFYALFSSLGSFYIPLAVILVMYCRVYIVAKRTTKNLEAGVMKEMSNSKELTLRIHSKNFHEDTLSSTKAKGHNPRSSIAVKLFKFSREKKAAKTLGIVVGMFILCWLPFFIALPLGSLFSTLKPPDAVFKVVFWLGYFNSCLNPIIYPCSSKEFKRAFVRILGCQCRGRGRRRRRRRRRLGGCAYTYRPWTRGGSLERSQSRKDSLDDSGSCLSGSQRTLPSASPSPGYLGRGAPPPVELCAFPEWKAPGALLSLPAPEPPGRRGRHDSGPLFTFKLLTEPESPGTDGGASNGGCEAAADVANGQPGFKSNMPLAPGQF
# [1] = molecular target: T3, full-length human α1D-adrenoceptor (Homo sapiens, UniProt P25100); test: [3H]prazosin whole-cell competition binding, CHO-α1D cells; details: for % site 1 α1D: percentage of inhibition through first component, control
# T3 sequence (P25100 1-572): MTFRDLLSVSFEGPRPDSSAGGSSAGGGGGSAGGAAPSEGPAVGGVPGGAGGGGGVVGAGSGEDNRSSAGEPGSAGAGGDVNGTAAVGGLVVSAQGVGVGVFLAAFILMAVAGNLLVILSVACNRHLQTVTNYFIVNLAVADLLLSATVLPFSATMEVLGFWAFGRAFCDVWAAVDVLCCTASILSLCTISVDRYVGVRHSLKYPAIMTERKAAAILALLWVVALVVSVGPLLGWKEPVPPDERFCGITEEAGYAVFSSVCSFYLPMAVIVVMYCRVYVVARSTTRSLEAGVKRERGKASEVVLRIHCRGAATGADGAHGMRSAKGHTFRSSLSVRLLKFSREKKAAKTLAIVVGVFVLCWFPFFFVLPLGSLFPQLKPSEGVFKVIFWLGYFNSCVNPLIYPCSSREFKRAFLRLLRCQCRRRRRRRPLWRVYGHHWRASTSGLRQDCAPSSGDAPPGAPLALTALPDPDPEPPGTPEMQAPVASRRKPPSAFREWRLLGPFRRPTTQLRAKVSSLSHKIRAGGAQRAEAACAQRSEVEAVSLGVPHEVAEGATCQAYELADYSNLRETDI
# [2] = single-component inhibition curve, given as log KD (negative), mean ± SE mean
# [3] = ratio of KD values, higher α1A affinity, 1.0 under vs = none
# [4] = ratio of KD values, printed under α1A = higher α1A affinity, 1.0 under vs = none
# [5] = ratio, 1 = no selectivity for a subtype over another
# [6] = selectivity ratio, 1 = no selectivity for a given receptor subtype over another
# [7] = ratio of KD values, higher α1D affinity (site 1 KD)
compound,measurement,setting,value
O=C1Nc2ccccc2C2=NC(CN3CCN(c4ccccc4)CC3)CN12 (centres unmarked) [2‐PMDQ],Log KD α1A,human α1A-adrenoceptor; [2],−8.19 ± 0.09
same,Log KD α1B,human α1B-adrenoceptor; [2],−6.95 ± 0.05
same,% site 1 α1D,[1],57.6 ± 2.8% site 1
COc1ccccc1N1CCN(CCCNc2c(C)c(=O)n(C)c(=O)n2C)CC1 [5-methyl-urapidil],Log KD α1A,human α1A-adrenoceptor,-8.23 ± 0.05
same,selectivity α1A vs 1D,human α1A-adrenoceptor,417
same,selectivity α1A vs α1B,human α1A-adrenoceptor,148
same,Log KD α1B,human α1B-adrenoceptor,-6.06 ± 0.04
same,selectivity α1B vs α1D,human α1B-adrenoceptor,2.8
same,Log KD α1D,[1],-5.61 ± 0.07
COc1ccccc1N1CCN(CCCNc2c(C)c(=O)n(C)c(=O)n2C)CC1 [5‐methyl‐urapidil],Selectivity ratio α1A vs α1B,human α1A-adrenoceptor,148 fold
same,Selectivity ratio α1A vs α1D,human α1A-adrenoceptor,417 fold
same,Log KD α1A,human α1A-adrenoceptor; [2],−8.23 ± 0.05
same,Log KD α1B,human α1B-adrenoceptor,−6.06 ± 0.04
same,Selectivity ratio α1B vs α1D,human α1B-adrenoceptor,2.8 fold
same,Log KD α1D,[1]; [2],−5.61 ± 0.07
COc1cccc2c1CCC[C@H]2CN(C)CCc1ccc2ccoc2c1.CS(=O)(=O)O [A80426],Selectivity ratio α1A vs α1D,human α1A-adrenoceptor; [3],3.1 fold
same,Selectivity ratio α1A vs α1B,human α1A-adrenoceptor; [4],3.1 fold
same,selectivity α1A vs 1D,human α1A-adrenoceptor; [5],3.1
same,selectivity α1A vs α1B,human α1A-adrenoceptor; [5],3.1
same,selectivities α1A vs α1B,human α1A-adrenoceptor; [6],3.1
same,selectivities α1A vs α1D,human α1A-adrenoceptor; [6],3.1
same,Log KD α1A,human α1A-adrenoceptor; [2],−6.57 ± 0.05
same,selectivity α1B vs α1D,human α1B-adrenoceptor; [5],1.0
same,Log KD α1B,human α1B-adrenoceptor; [2],−6.08 ± 0.02
same,Selectivity ratio α1B vs α1D,[1]; [7],1.0 fold
same,Log KD α1D,[1]; [2],−6.07 ± 0.07
N=C(CC(O)COc1ccccc1-c1ccccc1)N1CCCCC1 (centres unmarked) [AH11110A],Selectivity ratio α1A vs α1D,human α1A-adrenoceptor; [3],32 fold
same,Selectivity ratio α1A vs α1B,human α1A-adrenoceptor; [4],6.8 fold
same,Log KD α1A,human α1A-adrenoceptor; [2],−6.48 ± 0.03
same,Selectivity ratio α1B vs α1D,"human α1B-adrenoceptor; ratio of KD values, higher α1B affinity, 1.0 under vs = none",4.7 fold
same,Log KD α1B,human α1B-adrenoceptor; [2],−5.65 ± 0.09
same,Log KD α1D,[1]; [2],−4.98 ± 0.06
COc1ccccc1N1CCN(CCN2C(=O)c3ccccc3C(C)(C)C2=O)CC1 [ARC239],Log KD α1A,human α1A-adrenoceptor; [2],−9.35 ± 0.08
same,Log KD α1B,human α1B-adrenoceptor; [2],−8.15 ± 0.07
same,% site 1 α1D,[1],60.5 ± 1.4% site 1
COc1ccc2cccc(CCNC(C)=O)c2c1 [Agomelatine],Kd,"human α1A-adrenoceptor; app: top concentration inhibited most but not all specific binding, curve extrapolated, read-out: Log KD α1A (apparent) (converted)",26.9 µM
same,Selectivity ratio α1A vs α1B,human α1A-adrenoceptor; [4],>3.7 fold
same,Log KD α1B: result in words,human α1B-adrenoceptor,No binding to 100 µmol/L
same,binding at α1B,human α1B-adrenoceptor,No binding to 100µM
same,binding at α1B (result in words),human α1B-adrenoceptor,No binding to 100µM
same,IC50,[1],> 31.6 µM
CCN1CCCC1CNC(=O)c1cc(S(=O)(=O)CC)c(N)cc1OC (centres unmarked) [Amisulpiride],Log KD α1A,human α1A-adrenoceptor; [2],−5.05 ± 0.04
same,Log KD α1B: result in words,human α1B-adrenoceptor,No binding to 100 µmol/L
same,binding at α1B,human α1B-adrenoceptor,No binding to 100µM
same,binding at α1B (result in words),human α1B-adrenoceptor,No binding to 100µM
same,Log KD α1D (apparent),"[1]; app: top concentration inhibited most but not all specific binding, curve extrapolated",−4.55 ± 0.08^app
Cc1ccc(/N=C/N(C)/C=N/c2ccc(C)cc2C)c(C)c1 [Amitraz],Selectivity ratio α1A vs α1B,human α1A-adrenoceptor,>33 fold
same,Selectivity ratio α1A vs α1D,human α1A-adrenoceptor,2.8 fold
same,Kd,"human α1A-adrenoceptor; single-component inhibition curve, given as log KD (negative), mean ± SE mean, read-out: Log KD α1A (converted)",3.02 µM
same,selectivity α1B vs α1D,human α1B-adrenoceptor; [5],>12
same,IC50,human α1B-adrenoceptor; read-out: Log IC50 α1B (converted),> 100 µM
same,Kd,[1],8.32 µM
same,Selectivity ratio α1B vs α1D,[1],>12 fold
CN(C)CCC=C1c2ccccc2CCc2ccccc21 [Amitriptyline],Selectivity ratio α1A vs α1B,human α1A-adrenoceptor,93 fold
same,Selectivity ratio α1A vs α1D,human α1A-adrenoceptor,87 fold
same,selectivities α1A vs α1B,human α1A-adrenoceptor,93
same,selectivity α1A vs α1B,human α1A-adrenoceptor,93
same,Kd,"human α1A-adrenoceptor; Log KD α1A, single-component inhibition curve, given as log KD (negative), mean ± SE mean",0.00646 µM
same,selectivity α1B vs α1D,human α1B-adrenoceptor; [5],1.1
same,Kd,"human α1B-adrenoceptor; single-component inhibition curve, given as log KD (negative), mean ± SE mean, read-out: Log KD α1B (converted)",0.603 µM
same,Kd,"[1]; Log KD α1D, single-component inhibition curve, given as log KD (negative), mean ± SE mean",0.562 µM
same,Selectivity ratio α1B vs α1D,[1]; [7],1.1 fold
